The supplement of paper PMC4862054

Experiments:
Assay in all cases: normalised viability (% of control), CellTiter-Blue; higher = more viable cells (about 100 = DMSO control)
Details in all cases: incubation time: 72 h
CAL-51 [1] = system: CAL-51
Procedure: (§1)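 DSRT, CellTiter-Blue viability, 72 h incubation. Signal is normalised to DMSO and benzethonium chloride controls. Value is the normalised response at dose 6.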

CAL-148 [2] = system: CAL-148
Procedure: as §1

HDQ-P1 [3] = system: HDQ-P1
Procedure: as §1

CAL-85-1 [4] = system: CAL-85-1
Procedure: as §1

MDA-MB-453 [5] = system: MDA-MB-453
Procedure: as §1

DU-4475 [6] = system: DU-4475
Procedure: as §1

CAL-51 [7] = system: CAL-51; remark: listed apart in the source
Procedure: (§2)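 DSRT, CellTiter-Blue viability, 72 h incubation. Signal is normalised to DMSO and benzethonium chloride controls. Value is the normalised response at dose 8.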

CAL-148 [8] = system: CAL-148; remark: listed apart in the source
Procedure: as §2

HDQ-P1 [9] = system: HDQ-P1; remark: listed apart in the source
Procedure: as §2

CAL-85-1 [10] = system: CAL-85-1; remark: listed apart in the source
Procedure: as §2

MDA-MB-453 [11] = system: MDA-MB-453; remark: listed apart in the source
Procedure: as §2

DU-4475 [12] = system: DU-4475; remark: listed apart in the source
Procedure: as §2

SMILES | normalised viability (CAL-51 [1]) | normalised viability (CAL-148 [2]) | normalised viability (HDQ-P1 [3]) | normalised viability (CAL-85-1 [4]) | normalised viability (MDA-MB-453 [5]) | normalised viability (DU-4475 [6]) | normalised viability (CAL-51 [7]) | normalised viability (CAL-148 [8]) | normalised viability (HDQ-P1 [9]) | normalised viability (CAL-85-1 [10]) | normalised viability (MDA-MB-453 [11]) | normalised viability (DU-4475 [12])
C[C@@H]1C=C2C(=O)O[C@@H]3CC[C@H](C1)[C@]23O [Galiellalactone] (1500 nM) | 106% | 138% | 65.4% | 100% | 103% | 98.1% |  |  |  |  |  | 
CC(C)C[C@H](NC(=O)[C@H](Cc1ccccc1)NC(=O)c1cnccn1)B(O)O [Bortezomib] (300 nM) |  |  |  |  |  |  | 1.35% | 9.74% | 1.48% | 2.25% | 19.3% | 0.52%
CCCC(CCC)C(=O)O [Valproic acid] (300 nM) | 103% | 103% | 112% | 90% | 103% | 83.7% |  |  |  |  |  | 
COC(=O)C[C@](O)(CCCC(C)(C)O)C(=O)O[C@@H]1C(OC)=C[C@]23CCCN2CCc2cc4c(cc2[C@H]13)OCO4 [Omacetaxine mepesuccinate] (300 nM) | 7.35% | 13.5% | 10.2% | 4.19% | 20.1% | 9.29% |  |  |  |  |  | 
COc1c(C)cnc(Cn2cnc3c(Cl)nc(N)nc32)c1C [BIIB021] (300 nM) | 57.6% | 29.5% | 60.8% | 56.8% | 17.3% | 0.39% |  |  |  |  |  | 
c1ccc(C2CN3CCSC3=N2)cc1 (stereo not given) [Tetramisole] (3000 nM) |  |  |  |  |  |  | 101% | 109% | 101% | 93.5% | 116% | 95.4%
CS(=O)(=O)OCCCCOS(C)(=O)=O [Busulfan] (30000 nM) |  |  |  |  |  |  | 100% | 107% | 102% | 96.5% | 117% | 91%
C[C@@]1(C(=O)Nc2ccc(F)nc2)CCCN1c1nc(Nc2cc(C3CC3)n[nH]2)c2cccn2n1 (300 nM) | 88.3% | 95.7% | 50.3% | 65.7% | 84.6% | 77.7% |  |  |  |  |  | 
CC(=O)O[C@H]1C(=O)[C@@]2(C)[C@H]([C@H](OC(=O)c3ccccc3)[C@]3(O)C[C@H](OC(=O)[C@H](O)[C@@H](NC(=O)c4ccccc4)c4ccccc4)C(C)=C1C3(C)C)[C@]1(OC(C)=O)CO[C@@H]1C[C@@H]2O [Paclitaxel] (300 nM) |  |  |  |  |  |  | 20.6% | 16.1% | 26.6% | 25.5% | 24.7% | 16.9%
O=c1[nH]c(=O)n([C@H]2C[C@H](O)[C@@H](CO)O2)cc1F [Floxuridine] (3000 nM) |  |  |  |  |  |  | 22.8% | 44.8% | 80.1% | 42.9% | 71.8% | 97.9%
